The record followed here is PMC12040169 (PLOS Biology, 2025).

The nature of the data set: in vitro. The following applies: human, hela cells, % viability.

Turning to `CCc1nnc(SCc2ccc(CSc3nnc(CC)n3N)cc2)n1N` [CBK265689], the viability at 28.5 h, 10 µM was determined as 106%.
On the same count and under the same terms, the figure for `CCN(Cc1c[nH]nc1-c1ccc(OC)cc1F)CC1CCCO1` (centres unmarked) [CBK307350] is 102%; for `c1coc(-c2nccnc2NCc2ccncc2)c1` [CBK038059] it is 105%.
The same measure, in the same setting: the same measure for `CC(=O)CSc1nsc(SCC(C)=O)n1` [CBK006702]: 89.6%.
Same read-out and setting: the same measure for `NCCNC(=O)c1ccc(-c2cccc(C(F)(F)F)c2)o1` [CBK115927C]: 104%; for `O=C(O)CCn1c2ccc(Cl)cc2c2cc(Cl)ccc21` [CBK261415]: 89.5%.
Regarding `CN(/N=C\c1ccc([N+](=O)[O-])cc1)c1nc(-c2ccccc2)cc(-c2ccccc2)n1` [CBK261517], the viability at 28.5 h, 10 µM came to 88.9%.
Consider `CC1=C(C(=O)OCC(=O)c2ccc(C)cc2)C2C=C(Br)C=CC2N=C1c1ccc(C)cc1` (centres unmarked) [CBK264079], for which the viability at 28.5 h, 10 µM is 94%.
On the same count and under the same terms, the same measure for `CCCn1c(SCC(=O)N2CCOCC2)nc2cc(Cl)ccc2c1=O` [CBK306482]: 97.6%; for `CC(=O)N[C@H](Cc1c[nH]c2ccccc12)C(=O)N1CCN(c2ccc(C(F)(F)F)cc2)CC1` [CBK091314]: 94.5%.
Same read-out and setting: the same measure for `COc1ccc(CN(C(=O)c2cccc(-n3cnnn3)c2)C2CC2)cc1` [CBK256997]: 91.6%; for `CC(C)CC(NC(=O)N1CCOc2ccc(Cl)cc2C1)c1ncnn1C` (centres unmarked) [CBK306544]: 115%.
The same measure, in the same setting: the figure for `O=C(CSCc1c(Cl)cccc1Cl)NN1C(=O)c2ccccc2C1=O` [CBK267800] is 101%; for `Cc1ccc(-c2cc(C3CCN(C(=O)c4cnn(C)c4)C3)[nH]n2)cc1` (centres unmarked) [CBK285266] it is 85.4%.
Regarding `O=C(CSc1nc2sc3c(c2c(=O)n1CCc1ccccc1)CCCC3)Nc1ccccc1` [CBK267281], the viability at 28.5 h, 10 µM stood at 112%.
Take `CCn1ncnc1CN1CCN(Cc2ccccc2CO)CC1` [CBK306717]: the viability at 28.5 h, 10 µM worked out at 88.1%.
The same measure, in the same setting: the same measure for `CCOC(=O)c1c(NC(=O)c2cc(-c3ccc(C)c(C)c3)nc3ccccc23)sc2c1CCC(C)C2` (centres unmarked) [CBK262627]: 96.4%; for `COc1ccccc1N1CCN(C(=O)NCCc2c[nH]cn2)CC1` [CBK155369]: 98.8%.
Still for that read-out and setting: the same measure for `CCCn1ccnc1-c1cn(Cc2cc(C(C)(C)C)n[nH]2)nn1` [CBK306791]: 118%.
On the same count and under the same terms, the figure for `Cc1ccn(CC(=O)N2CC[C@H]3NC(=O)COc4ccccc4CCCC[C@@H]3C2)c(=O)c1` [CBK292045] is 99.2%.
In the case of `c1ccc(CN2CCC[C@H]2c2nc(-c3ccc(-c4cncnc4)nc3)no2)cc1` [CBK288891], the viability at 28.5 h, 10 µM was found to be 87.5%.
As to `CCn1ncnc1CN(c1cccc(CO)c1)C1Cc2ccccc2C1` [CBK304173], the viability at 28.5 h, 10 µM was determined as 111%.
Same read-out and setting: the figure for `C=CCN1C(=O)CC2(C1=O)C(=O)N(Cc1ccc(S(=O)(=O)N(CC)CC)cc1)c1ccc(Cl)cc12` (centres unmarked) [CBK075412] is 98%.
Same read-out and setting: the same measure for `O=C(O)c1[nH]c2ccccc2c1C(c1c(F)cccc1Cl)c1c(C(=O)O)[nH]c2ccccc12` [CBK267797]: 87.4%.
On to `COCC(C)NC(=O)c1cc(-c2cccs2)nc2onc(C)c12` (centres unmarked) [CBK306473], for which the viability at 28.5 h, 10 µM worked out at 104%.
Still for that read-out and setting: the figure for `O=C(O)c1cccc(NS(=O)(=O)c2ccc3c(c2)OCCO3)c1` [CBK155697] is 96.9%; for `O=c1c2cnn(-c3ccccc3)c2nc(Cc2ccccc2)n1-c1cccc2ccccc12` [CBK262316] it is 82.1%; for `O=C(CN1CCCC2(CCN(C(=O)c3cc(F)c(F)cc3F)C2)C1)Nc1ccc(F)c(Cl)c1` (centres unmarked) [CBK132008] it is 96.9%.
Still for that read-out and setting: the figure for `CS(=O)(=O)N1CC2(CCN(Cc3ncc[nH]3)CC2)c2ccccc21` [CBK126680] is 98.8%; for `COc1ccc(OC)c(S(=O)(=O)N2CCN(C(=O)c3cc(-c4ccncc4)nc4c(C)cc(C)cc34)CC2)c1` [CBK267778] it is 103%.
Consider `Cc1ccc(C2=CCN(CC(=O)Nc3nc(C)c(C)s3)CC2)o1` [CBK283607], for which the viability at 28.5 h, 10 µM worked out at 99.1%.
Same read-out and setting: the figure for `Cc1ccccc1C(=O)NCCCNC(=O)c1ccccn1` [CBK269172] is 96.7%; for `CNS(=O)(=O)c1cc(C(=O)NC2CCCc3ccccc32)n(C)c1` (centres unmarked) [CBK305048] it is 103%; for `COc1cccc(/C=N\NC(=O)CN2CCN(Cc3ccccc3)CC2)c1O` [CBK263106] it is 97.1%.
For the compound `CCOC(=O)c1c(NC(=O)CSc2nc[nH]n2)sc2c1CCC2` [CBK267225], the viability at 28.5 h, 10 µM turned out to be 94.5%.
Still for that read-out and setting: the same measure for `COc1nc2ccn(CCN3C(=O)CCC3=O)c(=O)c2cc1C#N` [CBK307422]: 94.7%; for `O=c1[nH]c2cc(NCCO)c([N+](=O)[O-])cc2[nH]1` [CBK009794]: 93.2%; for `COc1ccc(C2(C(=O)NCCN3CCCC3)CC2)cc1` [CBK149824]: 95.6%.
Still for that read-out and setting: the figure for `C=CCNC(=O)C1(Cc2ccccc2-c2cccnc2)CCOCC1` [CBK285217] is 109%.
For the compound `CCCS(=O)(=O)N1CCN(S(=O)(=O)c2ccc(NC(C)=O)cc2)CC1` [CBK264288], the viability at 28.5 h, 10 µM was determined as 96.6%.
Same read-out and setting: the same measure for `O=C(CCSc1ccccc1)Nc1ccccc1C(=O)O` [CBK264119]: 92.1%; for `Cc1ccc([N+](=O)[O-])cc1NC(=O)CCn1cnc2ccccc2c1=O` [CBK267644]: 106%.
Turning to `Cc1ccc(-c2nccnc2OCCC(C)C)c(C)c1` [CBK106988], the viability at 28.5 h, 10 µM was found to be 102%.
Same read-out and setting: the same measure for `COc1ccccc1NC(=O)C1CN(S(=O)(=O)c2ccccc2)CCN1S(=O)(=O)c1ccccc1` (centres unmarked) [CBK262673]: 93.5%.
The same measure, in the same setting: the same measure for `Cc1cccc(C)c1NC(=O)CN(Cc1ccccc1)Cc1cc2ccc(C)c(C)c2[nH]c1=O` [CBK122696T]: 94.4%; for `O=C(CS(=O)(=O)Cc1ccccc1)Nc1ccc(S(=O)(=O)N2CCCCCC2)cc1` [CBK266653]: 98.8%.
On the same count and under the same terms, the figure for `N=c1n(CCN2CCCC2)c2ccccc2n1CC(O)c1ccc(Cl)c(Cl)c1` (centres unmarked) [CBK263448C] is 83.6%; for `CC(C)OC(=O)N1CCC(CNc2ncc(-c3ccc(S(C)(=O)=O)cc3)cn2)CC1` [CBK165367] it is 99.1%.
Turning to `CCCN1CCN(C(=O)c2cnc(C)cn2)C(Cc2cccc(-c3cccs3)c2)C1=O` (centres unmarked) [CBK285678], the viability at 28.5 h, 10 µM is 87.2%.
Same read-out and setting: the same measure for `CCCCOc1ccccc1NC(=O)CC1NCCNC1=O` (centres unmarked) [CBK269299]: 94.7%; for `O=C(O)C1C2C=CC(C2)C1C(=O)N1CCN(C(c2ccccc2)c2ccccc2)CC1` (centres unmarked) [CBK262659]: 95.2%.
Still for that read-out and setting: the same measure for `COC(=O)[C@H]1CCc2ccccc2N1C(=O)C(C)C` [CBK285474]: 100%.
Still for that read-out and setting: the same measure for `COc1ccc2sc(C)nc2c1` [CBK028488]: 101%; for `O=C(CN1CCC[C@@H]1CN1CCCC1)Nc1ncccn1` [CBK149107]: 103%.
As to `O=[N+]([O-])c1cc(S(=O)(=O)Nc2ccc3[nH]ncc3c2)ccc1Cl` [CBK062537], the viability at 28.5 h, 10 µM was 84.6%.
Still for that read-out and setting: the figure for `Cc1nn(Cc2ccc(F)cc2)c(=O)c2cc3sccc3n12` [CBK284059] is 72.7%; for `Cc1cc(N2CCN(c3ccccc3)CC2)nc(-c2ccccc2O)n1` [CBK116405] it is 92.1%.
The same measure, in the same setting: the same measure for `CCn1ccc(C(=O)NC(c2cncc(OC)c2)[C@H]2C[C@@H](O)C2)cc1=O` (some centres unmarked) [CBK307696]: 110%; for `CCOC(=O)c1cccnc1-c1ccc(Cl)c(Cl)c1` [CBK149241]: 92.1%.
On the same count and under the same terms, the same measure for `Cc1ccc2nc(O)c(CNc3ccc(-c4nc5cc(C)ccc5[nH]4)cc3)cc2c1` [CBK286161]: 89.7%; for `COc1ccc(-c2cc(C(=O)Nc3nc4c(OC)cccc4s3)cnc2-c2ccccc2)cn1` [CBK036681]: 105%.
In the case of `O=C(NC1CC1)c1nn(Cc2ccc(S(=O)(=O)N3CCCCC3)cc2)c2ccccc12` [CBK047820], the viability at 28.5 h, 10 µM (bulk resorufin, single well) turned out to be 106%.
Turning to `CC(=O)N1CCC[C@H]2NC(=O)CNC(=O)C3(C/C=C/C[C@H]21)CCNCC3` [CBK292173], the viability at 28.5 h, 10 µM stood at 89.8%.
Still for that read-out and setting: the same measure for `CCC(Oc1ccc(C)cc1)C(=O)Nc1ccccc1C(=O)N1CCOCC1` (centres unmarked) [CBK270132]: 85.6%.
On the same count and under the same terms, the same measure for `O=C(NCCc1c[nH]c2ccccc12)NC(=O)C1CCNCC1` [CBK051094]: 90.2%; for `CC(C)(C)C1CCc2c(sc(NC(=O)c3cccs3)c2C(N)=O)C1` (centres unmarked) [CBK307114]: 85.4%; for `O=C(C1=C(O)C(=O)N(CCCn2ccnc2)C1c1cccc([N+](=O)[O-])c1)c1ccc(F)cc1` (centres unmarked) [CBK264571]: 97.8%.
Take `O=C(Cn1cccc(C(=O)NC2CCCCC2)c1=O)Nc1nc2c(s1)CCCCC2` [CBK286056]: the viability at 28.5 h, 10 µM was determined as 90.1%.
In the case of `Nc1ncc([C@@H]2O[C@H](CO)[C@H](O)C2O)c(=O)[nH]1` (some centres unmarked) [CBK201205], the viability at 28.5 h, 10 µM turned out to be 78.1%.
The same measure, in the same setting: the same measure for `CC(=O)N1CCC[C@H]2NC(=O)CNC(=O)C3(C/C=C/C[C@H]21)CCN(CC(N)=O)CC3` [CBK292135]: 84.4%; for `Cc1ccc(-n2c(SCC(=O)N3CCc4ccccc43)nnc2-c2ccccc2O)c(C)c1` [CBK268793]: 108%; for `COc1ccc(C[C@@]23CCC(=O)C[C@@H]2N(C)CC3)cc1` [CBK009720]: 102%.
On the same count and under the same terms, the figure for `N#Cc1ccc(NC(=O)CC2(CC(=O)O)CCCC2)cc1` [CBK286979] is 89.5%.
Same read-out and setting: the figure for `O=C(Cn1cc(C(=S)N2CCOCC2)c2ccccc21)Nc1ccc2c(c1)OCO2` [CBK266703] is 94.6%; for `NC(=O)C1CCCN(S(=O)(=O)c2ccc(S(N)(=O)=O)cc2)C1` (centres unmarked) [CBK266312] it is 96.2%.
For `Cc1noc(C)c1NC(=O)N(Cc1ccc(-c2ccccc2)cc1)CC1CCNCC1` [CBK056721], the viability at 28.5 h, 10 µM amounted to 100%.
As for `COCC(C)NC(=O)Cn1c(-c2cccs2)cc2cccnc21` (centres unmarked) [CBK282557], the viability at 28.5 h, 10 µM stood at 81.8%.
